Experiment [1] concerns the target α-glucosidase from Saccharomyces cerevisiae. The experiment can be described thus: α-glucosidase inhibition. It is filed as biochemical. The settings on record: read-out: Inhibitory activity (IC50) on α-glucosidase; mean ± SD; pNPG substrate, pH 6.8, 37 °C.
Experiment [2] addresses T1, porcine pancreatic amylase (Sus scrofa, UniProt P00690).
T1 sequence (P00690 16-511): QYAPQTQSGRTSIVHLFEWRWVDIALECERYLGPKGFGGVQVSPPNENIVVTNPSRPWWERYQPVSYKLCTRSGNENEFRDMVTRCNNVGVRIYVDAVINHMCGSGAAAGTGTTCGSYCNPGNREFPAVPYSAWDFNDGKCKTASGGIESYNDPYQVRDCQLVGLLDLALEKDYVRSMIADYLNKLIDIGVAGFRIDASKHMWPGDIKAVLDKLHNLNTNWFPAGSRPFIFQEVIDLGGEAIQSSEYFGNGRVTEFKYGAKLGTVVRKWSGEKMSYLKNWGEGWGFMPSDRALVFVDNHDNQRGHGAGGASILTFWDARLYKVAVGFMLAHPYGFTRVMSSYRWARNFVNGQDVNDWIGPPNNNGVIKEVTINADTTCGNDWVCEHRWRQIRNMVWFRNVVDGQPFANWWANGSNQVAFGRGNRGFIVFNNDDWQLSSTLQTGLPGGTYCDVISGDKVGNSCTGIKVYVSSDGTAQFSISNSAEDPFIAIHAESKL
The experiment is described as follows: biochemical.

Experiment [3] concerns the target T2, lipase from porcine pancreas (Sus scrofa, UniProt P00591).
T2 sequence (P00591 1-450): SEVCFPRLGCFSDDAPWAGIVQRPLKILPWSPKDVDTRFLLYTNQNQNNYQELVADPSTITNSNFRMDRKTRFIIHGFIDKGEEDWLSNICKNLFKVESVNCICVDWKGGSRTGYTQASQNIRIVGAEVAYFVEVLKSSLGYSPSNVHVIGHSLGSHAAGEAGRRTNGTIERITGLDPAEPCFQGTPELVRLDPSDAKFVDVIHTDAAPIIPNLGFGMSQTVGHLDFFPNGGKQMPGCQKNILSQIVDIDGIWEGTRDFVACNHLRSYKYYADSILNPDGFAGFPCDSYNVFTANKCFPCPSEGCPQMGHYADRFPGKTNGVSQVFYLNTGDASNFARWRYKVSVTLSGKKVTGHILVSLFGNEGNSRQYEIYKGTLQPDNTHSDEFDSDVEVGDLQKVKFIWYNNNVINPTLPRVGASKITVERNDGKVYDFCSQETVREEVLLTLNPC
The experiment is described as follows: pancreatic lipase inhibition. In kind it is biochemical.

Structures are written as SMILES.

Consider `C[C@@H]1CC[C@]2(C(=O)O)CC[C@]3(C)C(=CC[C@@H]4[C@@]5(C)[C@H](O)C(=O)[C@H](O)C(C)(C)[C@@H]5CC[C@]43C)[C@@H]2[C@]1(C)O` [compound 7, 1-hydroxy-2-oxopomolic acid], for which, in experiment [1], the IC50 was found to be 192 ± 13.8 µM. `CC[C@H](CC[C@@H](C)[C@H]1CC[C@H]2[C@@H]3CC=C4C[C@@H](O[C@@H]5O[C@H](CO)[C@@H](O)[C@H](O)[C@H]5O)CC[C@]4(C)[C@H]3CC[C@]12C)C(C)C` [compound 14, β-sitosterol glucoside] returned an IC50 in experiment [2] of 113 ± 3.51 µM. Turning to `C[C@@H]1CC[C@]2(C(=O)O)CC[C@]3(C)C(=CC[C@@H]4[C@@]5(C)CC[C@H](O)C(C)(C)[C@@H]5CC[C@]43C)[C@@H]2[C@]1(C)O` [compound 13, pomolic acid], the values for the IC50 in experiment [2], in experiment [1] and in experiment [3] were 142 ± 6.15 µM, 85.5 ± 6.87 µM and 458 ± 72.8 µM, respectively.

Broadly, the IC50 is the point on the concentration scale where inhibition reaches its midpoint.

The record behind these values is paper PMC9016878 (ACS Omega, 2022).
